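How tested: cells in 96-well plates exposed to compound for 48 hours at five concentrations. Here, GI50 denotes the concentration required for 50% inhibition of growth. TGI is the concentration that stops growth completely.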
Experiments:
Assay in all cases: inhibition of tumour cell growth, NCI panel, 48 h
SK-MEL-28 melanoma = tested on: SK-MEL-28 melanoma
SF-295 CNS = tested on: SF-295 CNS
NCI-H226 lung = tested on: NCI-H226 lung
SK-OV-3 ovarian = tested on: SK-OV-3 ovarian
A498 renal = tested on: A498 renal
SF-268 CNS = tested on: SF-268 CNS
LOX IMVI melanoma = tested on: LOX IMVI melanoma
MALME-3M melanoma = tested on: MALME-3M melanoma
UO-31 renal = tested on: UO-31 renal
NCI/ADR-RES ovarian = tested on: NCI/ADR-RES ovarian

SMILES | TGI (SK-MEL-28 melanoma) [µM] | TGI (SF-295 CNS) [µM] | TGI (NCI-H226 lung) [µM] | TGI (SK-OV-3 ovarian) [µM] | TGI (A498 renal) [µM] | TGI (SF-268 CNS) [µM] | TGI (LOX IMVI melanoma) [µM] | TGI (MALME-3M melanoma) [µM] | TGI (UO-31 renal) [µM] | GI50 (SF-295 CNS) [µM] | GI50 (NCI/ADR-RES ovarian) [µM] | TGI (NCI/ADR-RES ovarian) [µM] | GI50 (SK-OV-3 ovarian) [µM] | GI50 (SF-268 CNS) [µM] | GI50 (LOX IMVI melanoma) [µM] | GI50 (UO-31 renal) [µM] | GI50 (SK-MEL-28 melanoma) [nM] | GI50 (NCI-H226 lung) [µM] | GI50 (A498 renal) [µM] | GI50 (MALME-3M melanoma) [nM]
Cc1cc(C)cc(Sc2c([N+](=O)[O-])ncn2C)c1 | 30 | 70.8 | 22 | 75.5 | 77.1 | 33.9 | 25.6 | 25.3 | 85.9 | – | – | – | – | – | – | – | – | – | – | –
Cc1cc(NS(=O)(=O)c2ccc(NC(=O)c3cccc4c(Nc5ccc(S(=O)(=O)Nc6cc(C)on6)cc5)c5ccccc5nc34)cc2)no1 | > 100 | > 100 | – | > 100 | > 100 | > 100 | 87.5 | > 100 | > 100 | – | – | – | – | – | – | – | – | – | – | –
O=C(O)C1CCCCN1C(=O)c1ccccc1 (stereo not given) | > 100 | > 100 | – | > 100 | > 100 | > 100 | > 100 | > 100 | > 100 | – | – | – | – | – | – | – | – | – | – | –
COc1cccc(C2NC(=S)NC(C)=C2C(=O)Nc2ccc(F)c(Cl)c2)c1 (stereo not given) | – | > 50 | – | > 50 | – | > 50 | > 50 | – | > 50 | 22.4 | 18.2 | > 50 | > 50 | 28.7 | 17.6 | 20.4 | – | – | – | –
CCC[CH2][Sn]([CH2]CCC)([O]C(=O)c1nccnc1N)[O]C(=O)c1nccnc1N | 2.04 | 2.52 | 2.63 | 3.63 | 2.07 | 1.97 | 1.48 | 2.04 | 2.77 | 1.26 | – | – | 2.06 | 0.64 | 0.365 | 1.45 | 769 | 1.33 | 0.819 | 570
NC(=O)C(NC=O)c1ccccc1 (stereo not given) | > 100 | > 100 | – | > 100 | – | > 100 | > 100 | – | > 100 | – | – | > 100 | – | – | – | – | – | – | – | –
O=C(Nc1ccccc1Br)c1cccc([N+](=O)[O-])c1O | 59.9 | 25.2 | 14.8 | > 57.8 | 9.05 | > 100 | 10.7 | 7.38 | 5.73 | – | – | – | – | – | – | – | – | – | – | –
C=C(C)[C@@H]1CCC2=C[C@@H](OC2=O)[C@@H](C(=C)C)C(=O)/C=C(/C)C(=O)C1 | 87.5 | > 100 | > 100 | – | 69.6 | > 100 | > 100 | 71.5 | > 100 | 35.9 | 37 | > 100 | – | 30 | > 100 | 42.2 | 34800 | 36.9 | 26.7 | 23800
CC[O-].Cc1ccc2cccc([O-])c2n1.Cc1ccc2cccc([O-])c2n1.Cc1ccc2cccc([O-])c2n1.[Ti+4] | > 100 | > 62 | > 100 | > 100 | > 100 | > 100 | 47.9 | > 66.3 | > 100 | 17.5 | – | – | > 68.9 | > 83.5 | 18.2 | > 100 | > 65200 | > 59.6 | > 63.2 | > 46000
N#CC(C#N)=CSc1ccccc1 | 81.1 | > 100 | 51.2 | > 100 | – | 54.1 | 26 | – | 39.5 | – | – | – | – | – | – | – | – | – | – | –
N#CCC(=O)N/N=C1\C(=O)N(c2ccc(Cl)cc2)C(=O)C(=O)C1c1nc2ccccc2o1 (stereo not given) | > 100 | > 100 | > 100 | > 100 | > 100 | > 100 | – | > 100 | > 100 | – | – | – | – | – | – | – | – | – | – | –
CCOC(=O)C1=C(C)NC2SC(=O)/C(=C\c3ccccc3)N2C1c1ccccc1 (stereo not given) | > 100 | > 100 | > 100 | > 100 | > 100 | > 100 | > 100 | – | > 100 | > 100 | > 100 | > 100 | > 100 | > 100 | > 100 | > 100 | > 100000 | > 100 | > 100 | –
CC1=C([Se]CC(OC(=O)[C@@H](CO)NC(=O)OC(C)(C)C)C(=O)NC(C)(C)C)C(=O)c2ccccc2C1=O (stereo not given in full) | 3.55 | 1.06 | 4.21 | 2.55 | 15.2 | 3.34 | 3.02 | 3.77 | 2.94 | 0.316 | – | – | 1.27 | 1.89 | 1.6 | 1.45 | 2060 | 1.96 | 3.64 | 2040
O=C(NNC(=O)c1ccncc1)c1ccncc1 | > 100 | > 100 | – | > 100 | > 100 | > 100 | > 100 | > 100 | > 100 | – | – | > 100 | – | – | – | – | – | – | – | –
CN1c2ccccc2S(=O)(=O)n2c(COc3ccc(Cl)cc3)nnc21 | > 100 | 92.7 | > 100 | > 100 | > 100 | > 100 | > 100 | – | > 100 | – | – | > 100 | – | – | – | – | – | – | – | –
CC1(C)C(=S)C(C)(C)C1=S | > 100 | – | > 100 | > 100 | – | > 100 | > 100 | > 100 | > 100 | – | – | > 100 | – | – | – | – | – | – | – | –
c1ccc(-c2nn(-c3ccccc3)[n+](-c3cccc4ccccc34)n2)cc1 | 13.9 | 26.6 | – | > 100 | 33.8 | 20.5 | > 100 | 1.13 | > 100 | 2.69 | > 100 | > 100 | 4.61 | 2.04 | 1.23 | 14 | 2360 | – | 2.91 | 333
CCN(CC)CCNC(=O)c1cccc2cc3ccccc3nc12 | 23.1 | 37.1 | 15.9 | 37.9 | 22.2 | 28.2 | 19.2 | – | 22.1 | – | – | – | – | – | – | – | – | – | – | –

From PubChem BioAssay (NCI)
